Results from the supplement of paper PMC10307832.

Key:
Experiment in all cases: relative viability (nuclei count vs DMSO), 5 days (fraction); higher = more cells survive
VX-11e + OSI-027 = compound: CC1=CN=C(N=C1C2=CNC(=C2)C(=O)N[C@H](CO)C3=CC(=CC=C3)Cl)NC4=C(C=C(C=C4)F)Cl [VX-11e] + COc1cccc2cc(-c3nc([C@H]4CC[C@H](C(=O)O)CC4)n4ncnc(N)c34)[nH]c12 [OSI-027] (partner 0.5 µM)
Method in brief: (§1)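 A single step with final 0.05% Triton X-100, 1% formaldehyde and 1 ug/ml Hoechst fixed the cells and stained nuclei 5 days after treatment. Lung cancer cell lines in 1536-well plates had been treated by pin tool the day after seeding with one drug alone or a fixed anchor-drug dose plus five library-drug doses (not always all listed) in √10 steps, and nuclei were counted on 4× images. Relative viability is the ratio of nuclei in treated wells to nuclei in vehicle wells, taken as the median of duplicate plates.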

VX-11e + Linsitinib = compound: CC1=CN=C(N=C1C2=CNC(=C2)C(=O)N[C@H](CO)C3=CC(=CC=C3)Cl)NC4=C(C=C(C=C4)F)Cl [VX-11e] + C[C@]1(O)C[C@@H](c2nc(-c3ccc4ccc(-c5ccccc5)nc4c3)c3c(N)nccn32)C1 [Linsitinib] (partner 1 µM)
Method in brief: as §1

VX-11e + Alpelisib = compound: CC1=CN=C(N=C1C2=CNC(=C2)C(=O)N[C@H](CO)C3=CC(=CC=C3)Cl)NC4=C(C=C(C=C4)F)Cl [VX-11e] + Cc1nc(NC(=O)N2CCC[C@H]2C(N)=O)sc1-c1ccnc(C(C)(C)C(F)(F)F)c1 [Alpelisib] (partner 2 µM)
Method in brief: as §1

VX-11e + Lapatinib = compound: CC1=CN=C(N=C1C2=CNC(=C2)C(=O)N[C@H](CO)C3=CC(=CC=C3)Cl)NC4=C(C=C(C=C4)F)Cl [VX-11e] + CS(=O)(=O)CCNCc1ccc(-c2ccc3ncnc(Nc4ccc(OCc5cccc(F)c5)c(Cl)c4)c3c2)o1 [Lapatinib] (partner 2 µM)
Method in brief: as §1

Row | Cell Line | relative viability (VX-11e + OSI-027; first compound 0.04 µM) | relative viability (VX-11e + OSI-027; first compound 0.1265 µM) | relative viability (VX-11e + OSI-027; first compound 0.4 µM) | relative viability (VX-11e + OSI-027; first compound 1.265 µM) | relative viability (VX-11e + OSI-027; first compound 4 µM) | relative viability (VX-11e + Linsitinib; first compound 0.04 µM) | relative viability (VX-11e + Linsitinib; first compound 0.4 µM) | relative viability (VX-11e + Linsitinib; first compound 1.265 µM) | relative viability (VX-11e + Linsitinib; first compound 4 µM) | relative viability (VX-11e + Alpelisib; first compound 0.04 µM) | relative viability (VX-11e + Alpelisib; first compound 0.4 µM) | relative viability (VX-11e + Alpelisib; first compound 1.265 µM) | relative viability (VX-11e + Alpelisib; first compound 4 µM) | relative viability (VX-11e + Lapatinib; first compound 0.04 µM) | relative viability (VX-11e + Lapatinib; first compound 0.4 µM) | relative viability (VX-11e + Lapatinib; first compound 1.265 µM) | relative viability (VX-11e + Lapatinib; first compound 4 µM) | relative viability (VX-11e + Linsitinib; first compound 0.1265 µM) | relative viability (VX-11e + Alpelisib; first compound 0.1265 µM) | relative viability (VX-11e + Lapatinib; first compound 0.1265 µM)
1 | NCI-H322M | 0.535 | 0.401 | 0.319 | 0.417 | 0.364 | 1.01 | 0.781 | 0.688 | 0.534 | 0.709 | 0.82 | 0.729 | 0.53 | 0.581 | 0.674 | 0.436 | 0.456 |  |  | 
2 | NCI-H358 | 0.734 | 0.642 | 0.25 | 0.382 | 0.132 | 0.738 |  | 0.558 | 0.277 | 0.857 |  | 0.541 | 0.237 | 0.41 |  | 0.391 | 0.274 | 0.52 | 0.89 | 0.425
3 | NCI-H460 | 0.589 | 0.483 | 0.181 | 0.0819 | 0.0249 | 1.17 | 0.674 | 0.0925 | 0.017 | 0.49 | 0.39 | 0.0408 | 0.0113 | 1.13 | 0.823 | 0.542 | 0.0703 | 0.849 | 0.359 | 0.85
4 | NCI-H520 | 0.247 | 0.25 | 0.203 | 0.217 | 0.313 | 0.948 | 0.827 | 1.06 | 0.69 | 0.919 | 0.863 | 0.982 | 0.619 | 0.951 | 0.687 | 0.87 | 0.572 | 0.898 | 0.939 | 0.791
5 | NCI-H596 | 0.518 | 0.691 | 0.525 | 0.349 | 0.407 | 1.06 | 0.981 | 0.874 | 0.769 | 0.504 | 0.459 | 0.48 | 0.357 | 1.2 | 0.933 | 0.917 | 0.774 | 0.944 | 0.458 | 0.938
6 | NCI-H647 | 0.664 | 0.456 | 0.496 | 0.41 | 0.353 | 1.1 | 1.09 | 0.674 | 0.378 | 1.32 | 1.05 | 0.551 | 0.282 | 0.863 | 0.546 | 0.476 | 0.353 | 1.05 | 1.19 | 0.902
7 | NCI-H650 | 0.531 | 0.616 | 0.75 | 0.559 | 0.518 |  | 0.957 |  | 0.88 |  | 1.14 |  | 0.876 |  | 0.944 |  | 0.909 | 0.79 | 0.961 | 0.894
8 | NCI-H661 | 0.727 | 0.632 | 0.751 | 0.625 | 0.396 | 0.598 | 0.568 | 0.501 | 0.394 | 0.403 | 0.606 | 0.586 | 0.511 | 0.527 | 0.446 | 0.386 | 0.314 | 0.617 | 0.831 | 0.5
9 | NCI-H727 | 0.353 | 0.678 | 0.522 | 0.447 | 0.284 | 0.314 | 0.215 | 0.274 | 0.184 | 0.432 | 0.438 | 0.333 | 0.254 | 0.699 | 1.19 | 0.501 | 0.307 | 0.252 | 0.497 | 0.591
10 | NCI-H838 | 0.356 | 0.413 | 0.3 | 0.347 | 0.262 | 1.06 | 0.96 | 0.887 | 0.79 | 1.06 | 0.952 | 1.02 | 0.824 | 0.856 | 0.396 | 0.701 | 0.627 | 0.933 | 0.989 | 0.92
11 | NCI-H1355 | 0.302 | 0.311 | 0.197 | 0.256 | 0.224 | 0.861 | 0.786 | 0.574 | 0.374 | 0.725 | 0.88 | 0.572 | 0.302 | 0.613 | 0.879 | 0.728 | 0.48 | 0.798 | 0.687 | 0.948
12 | NCI-H1395 | 0.572 | 0.539 | 0.57 | 0.621 | 0.447 | 1.17 | 0.846 | 0.963 | 0.718 | 1.08 | 0.745 | 1.04 | 0.675 | 0.969 | 0.548 | 0.82 | 0.716 | 1.29 | 0.916 | 0.864
13 | NCI-H1437 | 0.795 | 0.725 | 0.878 | 0.444 | 0.373 | 1.03 | 0.888 | 0.409 | 0.203 | 0.996 | 0.891 | 0.642 | 0.247 | 0.755 | 0.35 | 0.291 | 0.228 | 1.05 | 0.869 | 0.754
14 | NCI-H1563 | 0.729 | 0.697 | 0.705 | 0.822 | 0.789 | 1.21 | 1.22 | 1.11 | 1.06 | 0.86 | 0.897 | 0.917 | 0.874 | 0.938 | 0.529 | 0.854 | 0.864 | 1.2 | 0.84 | 0.795
15 | NCI-H1651 | 0.56 | 0.62 | 0.523 | 0.548 | 0.591 | 1.05 | 0.797 | 0.927 | 0.758 | 0.955 | 1 | 0.735 | 0.705 | 0.639 | 0.634 | 0.602 | 0.654 | 1.02 | 0.882 | 0.747
16 | NCI-H1666 | 0.932 | 0.777 | 0.75 | 0.611 | 0.524 | 0.846 | 0.594 | 0.493 | 0.42 | 0.706 | 0.8 | 0.461 | 0.333 | 0.713 | 0.467 | 0.43 | 0.388 | 0.81 | 1.01 | 0.99
